In patent US8247211B2, “Glycopeptide antibiotics” (American Cyanamid Company, priority 2001, dated 2012):

Assays:
Enterococcus sp. = assay: In vitro antibacterial evaluation: minimum inhibitory concentration (MIC), broth dilution method; type: cell-based; conditions: broth dilution, 5×10^5 CFU/mL, 18 hours at 35° C.
Summary of the method: (§1)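 NCCLS M7-A2 broth dilution; Muller-Hinton II […]; 5×10^5 CFU/mL; 64-0.06 μg/mL. MIC = lowest concentration with no growth.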

Staphylococcus sp. = assay: as above; type: cell-based; conditions: for MIC Staphylococcus aureus (ATCC 29213): strain ATCC 29213; for MIC Staphylococcus aureus (GC 1131): strain GC 1131; for MIC Staphylococcus aureus (GC 3051): strain GC 3051; for MIC Staphylococcus aureus (GC 3053): strain GC 3053; for MIC Staphylococcus aureus (GC 4541): strain GC 4541; for MIC Staphylococcus aureus (GC 4542): strain GC 4542; for MIC Staphylococcus aureus-SMITH (GC 4543): strain GC 4543; for MIC Staphylococcus aureus (GC 4544): strain GC 4544; for MIC Staphylococcus aureus (GC 4545): strain GC 4545; for MIC Staphylococcus haemolyticus (GC 4546): strain GC 4546; for MIC Coagulase Negative Staphylococcus (GC 4547): strain GC 4547; for MIC Coagulase Negative Staphylococcus (GC 4548): strain GC 4548; for MIC Coagulase Negative Staphylococcus (GC 4549): strain GC 4549; for MIC Coagulase Negative Staphylococcus (GC 4551): strain GC 4551; for MIC Coagulase Negative Staphylococcus (GC 6257): strain GC 6257
Summary of the method: as §1

Escherichia coli = assay: as above; type: cell-based; conditions: 5×10^5 CFU/mL, 18 hours at 35° C.
Summary of the method: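 Inoculum: 5×10^5 CFU/mL. Range: 64-0.06 μg/mL. Medium: Muller-Hinton II […]; NCCLS M7-A2 broth dilution. Endpoint: lowest concentration inhibiting growth. Strains include methicillin-, penicillin- and/or vancomycin-resistant clinical isolates.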

Streptococcus sp. = assay: as above; type: cell-based; conditions: broth dilution, 5×10^5 CFU/mL, 18 hours at 35° C.
Summary of the method: as §1

[1] = test system: Staphylococcus aureus-SMITH (GC 4543); assay: Acute lethal infection in mice (ED50); type: in vivo; conditions: female CD-1 mice, intraperitoneal challenge, intravenous dose 30 min. after infection, 7 day survival ratios
Summary of the method: (§2)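 IP bacterial challenge, female CD-1 mice; inoculum lethal to untreated controls in 24-48 hr. IV dosing in saline or 5% dextrose 30 min post-infection, 5 mice/dose. ED50 from 7-day survival, 3 tests pooled.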

[2] = test system: Enterococcus faecalis (GC 6189), vancomycin resistant strain; assay: Acute lethal infection in mice (ED50); type: in vivo; conditions: female CD-1 mice, intraperitoneal challenge, intravenous dose 30 min. after infection, 7 day survival ratios
Summary of the method: as §2

[3] = broth dilution, 18 hours at 35° C.

CC(c1ccccc1)C1NC(=O)CNC(=O)C(CO)NC(=O)C(C(O)C2CNC(=N)N2C2OC(CO)C(O)C(O)C2O)NC(=O)C(C(O)C2CNC(=N)N2)NC(=O)C(Cc2ccc(OC3OC(CO)C(OC4OC5COC(Cc6ccc(F)cc6)OC5C(O)C4O)C(O)C3O)cc2)NC1=O (stereo not drawn) [Example 121, Cyclo[glycyl-β-methylphenylalanyl-O-[4-O-[4,6-O-(4-fluorophenethylidene)hexopyranosyl]-hexopyranosyl]tyrosyl-3-(2-iminoimidazolidin-4-yl)seryl-3-(3-hexopyranosyl-2-iminoimidazolidin-4-yl)serylseryl]]
<0.06 µg/mL: MIC Streptococcus pneumoniae (GC 1894) (Streptococcus sp.) | MIC Streptococcus pneumoniae (GC 4565) (Streptococcus sp.) | MIC Streptococcus pneumonine (ATCC 6301) (Streptococcus sp.)
0.5 mg/kg: median effective dose (ED50), Enterococcus faecalis (GC 6189) [2]
1 µg/mL: MIC Staphylococcus aureus (ATCC 29213) (Staphylococcus sp.) | MIC Staphylococcus aureus (ATCC 29213) (Staphylococcus sp.; [3]) | MIC Staphylococcus aureus (GC 3051) (Staphylococcus sp.) | MIC Staphylococcus aureus (GC 3051) (Staphylococcus sp.; [3]) | MIC Staphylococcus aureus (GC 3053) (Staphylococcus sp.) | MIC Staphylococcus aureus (GC 3053) (Staphylococcus sp.; [3]) | MIC Staphylococcus aureus (GC 4541) (Staphylococcus sp.) | MIC Staphylococcus aureus (GC 4541) (Staphylococcus sp.; [3]) | MIC Staphylococcus aureus (GC 4542) (Staphylococcus sp.) | MIC Staphylococcus aureus (GC 4542) (Staphylococcus sp.; [3]) | MIC Staphylococcus aureus-SMITH (GC 4543) (Staphylococcus sp.; 18 hours at 35° C.) | MIC Staphylococcus aureus-SMITH (GC 4543) (Staphylococcus sp.; [3]) | MIC Staphylococcus haemolyticus (GC 4546) (Staphylococcus sp.) | MIC Staphylococcus haemolyticus (GC 4546) (Staphylococcus sp.; [3]) | MIC Coagulase Negative Staphylococcus (GC 4547) (Staphylococcus sp.) | MIC Coagulase Negative Staphylococcus (GC 4547) (Staphylococcus sp.; [3]) | MIC Coagulase Negative Staphylococcus (GC 6257) (Staphylococcus sp.) | MIC Coagulase Negative Staphylococcus (GC 6257) (Staphylococcus sp.; [3]) | MIC Escherichia coli (GC 4560) (Escherichia coli)
0.5 µg/mL: MIC Coagulase Negative Staphylococcus (GC 4548) (Staphylococcus sp.) | MIC Coagulase Negative Staphylococcus (GC 4548) (Staphylococcus sp.; [3]) | MIC Coagulase Negative Staphylococcus (GC 4549) (Staphylococcus sp.) | MIC Coagulase Negative Staphylococcus (GC 4549) (Staphylococcus sp.; [3])
4 µg/mL: MIC Enterococccus avium (GC 4558) (Enterococcus sp.) | MIC Enterococccus faecalis (GC 2691) (Enterococcus sp.) | MIC Enterococccus faecalis (GC 4553) (Enterococcus sp.)
0.25 µg/mL: MIC Streptococcus agalactiae (GC 4564) (Streptococcus sp.) | MIC Streptococcus pyogenes (GC 4563) (Streptococcus sp.)
0.32 mg/kg: median effective dose (ED50), Staphylococcus aureus-SMITH (GC 4543) [1]
32 µg/mL: MIC Escherichia coli (ATCC 25922) (Escherichia coli) | MIC Escherichia coli (GC 4559) (Escherichia coli)
2 µg/mL: MIC Enterococccus faecalis (ATCC 29212) (Enterococcus sp.) | MIC Enterococccus faecalis (GC 3059) (Enterococcus sp.) | MIC Enterococccus faecalis (GC 4552) (Enterococcus sp.) | MIC Enterococccus faecalis (GC 4554) (Enterococcus sp.) | MIC Enterococccus faecalis (GC 6189) (Enterococcus sp.) | MIC Enterococccus faecium (GC 2243) (Enterococcus sp.) | MIC Enterococccus faecium (GC 4556) (Enterococcus sp.) | MIC Enterococccus faecium (GC 4557) (Enterococcus sp.) | MIC Enterococcus faecalis (GC 2242) (Enterococcus sp.) | MIC Staphylococcus aureus (GC 1131) (Staphylococcus sp.) | MIC Staphylococcus aureus (GC 1131) (Staphylococcus sp.; [3]) | MIC Staphylococcus aureus (GC 4544) (Staphylococcus sp.) | MIC Staphylococcus aureus (GC 4544) (Staphylococcus sp.; [3]) | MIC Staphylococcus aureus (GC 4545) (Staphylococcus sp.) | MIC Staphylococcus aureus (GC 4545) (Staphylococcus sp.; [3]) | MIC Coagulase Negative Staphylococcus (GC 4551) (Staphylococcus sp.) | MIC Coagulase Negative Staphylococcus (GC 4551) (Staphylococcus sp.; [3])
